Assays:
[1] = Drug metabolism in sorensen buffer assessed as iminodibenzyl formation at pH 7.4 in the presence of HRP and H2O2 by GC/MS analysis; format: physicochemical
[2] = Induction of DNA degradation in calf thymus DNA at 0.5 mM after 1 hr by agarose gel electrophoresis in presence of HRP and H2O2; conditions: cattle, 500 µM
[3] = Drug metabolism in sorensen buffer assessed as formation of reactive intermediate during drug oxidation at 92 uM at pH 7.4 up to 24 mins in the presence of HRP by UV/vis spectrophotometry; format: physicochemical; conditions: pH 7.4, 0.4 h
[4] = tested on: HRP (horseradish peroxidase); experiment: Drug metabolism in sorensen buffer assessed as apparent Km for drug oxidation measured for 20 mins by Michaelis-Menten equation analysis in presence of HRP and H2O2; format: physicochemical; conditions: horseradish peroxidase (HRP) with H2O2 in Sorensen buffer
[5] = Drug metabolism in sorensen buffer assessed as formation of reactive intermediate during drug oxidation at 92 uM at pH 7.4 up to 24 mins in the presence of H2O2 by UV/vis spectrophotometry; format: physicochemical; conditions: pH 7.4, 0.4 h
[6] = Induction of DNA degradation in calf thymus DNA at 2 mM after 2 hrs by PCI extraction-based spectrophotometric analysis in presence of HRP and H2O2; conditions: cattle, 2000 µM
[7] = Drug metabolism in sorensen buffer assessed as formation of reactive intermediate during drug oxidation at 92 uM at pH 7.4 up to 24 mins in the presence of HRP and H2O2 by UV/vis spectrophotometry; format: physicochemical; conditions: pH 7.4, 0.4 h
[8] = Drug metabolism in water assessed as formation of 3-chloroiminodibenzyl in the presence of HRP and H2O2 UV/Vis spectrophotometry; format: physicochemical; conditions: buffer
[9] = Drug metabolism in water assessed as formation of reactive intermediate during drug oxidation at 1 mM in the presence of HRP and H2O2 UV/vis spectrophotometry; format: physicochemical; conditions: buffer, 1000 µM

Row | Drug metabolism [1] | Drug metabolism [3] | Km at 20 min [4] [mM] | Drug metabolism [5] | Drug metabolism [7] | SMILES | Activity [2] | Activity [6] | Drug metabolism [8] | Drug metabolism [9]
1 | Active | Not Active | 4.4 | Not Active | Active | CNCCCN1c2ccccc2CCc2ccccc21.Cl [DESIPRAMINE HYDROCHLORIDE] | Toxic | Toxic | – | –
2 | – | – | – | – | – | CN(C)CCCN1c2ccccc2CCc2ccc(Cl)cc21.Cl [CLOMIPRAMINE HYDROCHLORIDE] | Toxic | Toxic | Active | Active
